Where two headings read alike, the source gives them in different places.
Experiments:
Design in all cases: species or system SD rats
[1] = molecular target: T1, dopamine D2 receptor (Rattus norvegicus, UniProt P61169); test: dopamine D2 receptor binding test ([3H] Spiperone Binding Test); settings: 1 nM [3H] Spiperone, rat corpus striatum, room temperature, 60 minutes
T1 construct: the receptor fraction prepared from the corpus striatum was molten and suspended; from tissue; host or cells: corpus striatum of SD rats (membrane fraction)
T1 sequence (P61169 whole entry): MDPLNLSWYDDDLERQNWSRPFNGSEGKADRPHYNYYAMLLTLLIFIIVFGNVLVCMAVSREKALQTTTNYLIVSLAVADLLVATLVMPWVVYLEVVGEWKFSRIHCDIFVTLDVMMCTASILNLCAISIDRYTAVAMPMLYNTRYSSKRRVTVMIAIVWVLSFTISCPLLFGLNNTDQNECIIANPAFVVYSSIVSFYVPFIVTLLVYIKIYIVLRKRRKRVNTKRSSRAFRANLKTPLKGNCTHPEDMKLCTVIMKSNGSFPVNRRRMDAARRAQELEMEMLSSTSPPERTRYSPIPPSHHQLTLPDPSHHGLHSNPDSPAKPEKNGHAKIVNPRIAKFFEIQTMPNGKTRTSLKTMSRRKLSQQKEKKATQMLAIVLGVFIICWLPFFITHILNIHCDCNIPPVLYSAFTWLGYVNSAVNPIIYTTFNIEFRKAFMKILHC
Outline: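 Rat (SD, 6–8 weeks) corpus striatum membranes in 50 mM Krebs-Tris pH 7.4 were incubated with 1 nM [3H]spiperone at room temperature for 60 minutes, with nonspecific binding defined by excess spiperone. IC50 came from probit analysis; Ki was derived using radioligand concentration and Scatchard Kd.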

[2] = molecular target: adrenergic α1 receptor; test: adrenergic α1 receptor binding test ([3H] Prazosin Binding Test); settings: 1 nM [3H] Prazosin, rat cortex, room temperature, 60 minutes
Outline: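 Rat (SD, 6-8 weeks) cerebral cortex membranes in 50 mM Tris-HCl pH 7.4 incubated with 1 nM [3H]prazosin for 60 min at room temperature; nonspecific binding defined with phentolamine. IC50 by probit method, converted to Ki using radioligand concentration and Scatchard-derived Kd.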

[3] = molecular target: T2, serotonin S2 receptor (Rattus norvegicus, UniProt P14842); test: serotonin S2 receptor binding test ([3H] Ketanserin Binding Test); settings: 1 nM [3H] Ketanserin, rat cortex, 37° C., 15 minutes
T2 construct: The receptor fraction prepared from the cortex was molten and suspended; from tissue; host or cells: cerebral cortex of SD rats (membrane fraction)
T2 sequence (P14842 whole entry): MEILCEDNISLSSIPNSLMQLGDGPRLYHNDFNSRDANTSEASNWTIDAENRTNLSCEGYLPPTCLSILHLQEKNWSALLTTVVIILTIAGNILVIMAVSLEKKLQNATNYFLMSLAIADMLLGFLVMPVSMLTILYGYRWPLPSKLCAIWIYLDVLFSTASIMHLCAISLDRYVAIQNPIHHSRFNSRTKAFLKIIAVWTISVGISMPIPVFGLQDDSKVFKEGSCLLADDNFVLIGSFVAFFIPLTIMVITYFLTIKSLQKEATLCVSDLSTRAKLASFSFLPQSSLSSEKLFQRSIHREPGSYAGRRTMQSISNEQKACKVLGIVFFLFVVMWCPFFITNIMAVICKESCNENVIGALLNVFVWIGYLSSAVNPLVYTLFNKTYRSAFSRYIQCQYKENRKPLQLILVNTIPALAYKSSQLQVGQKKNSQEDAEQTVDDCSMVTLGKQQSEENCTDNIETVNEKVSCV
Outline: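 Rat (SD, 6–8 weeks) cortical membranes in 50 mM Tris-HCl pH 7.4 were incubated with 1 nM [3H]ketanserin for 15 min at 37 °C, then filtered and counted. Nonspecific binding was defined with methysergide. IC50 was obtained by probit analysis and converted to Ki using the Scatchard-derived Kd.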

[4] = read-out: Ki value, dopamine D2 receptor

Compound	Ki [1, 4]	Ki [2]	Ki [3]	Ki ([1]; Ki value, dopamine D2 receptor)
COc1c(C(=O)Cc2ccccc2)cc(N2CCN(Cc3ccccc3)CC2)cc1-c1ccccc1 [Example 126, 1-Benzyl-4-(3-phenyl-4-methoxy-5-phenylacetyl)phenylpiperazine]	54.6 nM	> 1000 nM	27.3 nM	
CCC(F)c1cc(N2CCN(CC)CC2)cc(-c2ccccc2)c1Cl (stereo not drawn) [Example 127, 1-Ethyl-4-[3-phenyl-4-chloro-5-(1-fluoropropyl)]phenylpiperazine]	1.04 nM	65.9 nM	11.4 nM	
COc1c(C(=O)Cc2ccccc2)cc(N2CCN(CCO)CC2)cc1-c1ccccc1 [Example 128, 1-(2-Hydroxyethyl)-4-(3-phenyl-4-methoxy-5-phenylacetyl)phenylpiperazine]	46.1 nM	> 1000 nM	1.16 nM	
CCC(F)c1cc(-c2ccccc2)cc(N2CCN(CC)CC2)c1 (stereo not drawn) [Example 129, 1-Ethyl-4-[3-phenyl-5-(1-fluoropropyl)]phenylpiperazine]		39.8 nM	34.9 nM	1.86 nM
CCC(=O)c1cc(-c2ccccc2)cc(N2CCN(CC)CC2)c1 [Example 130, 1-Ethyl-4-(3-phenyl-5-propionyl)phenylpiperazine]		70.4 nM	58 nM	29.7 nM
CCC(F)c1cc(N2CCN(CC)CC2)cc(-c2ccccc2C)c1Cl (stereo not drawn) [Example 131, 1-Ethyl-4-[3-(2-tolyl)-4-chloro-5-(1-fluoropropyl)]phenylpiperazine]	3.3 nM	> 1000 nM	20.8 nM	
CCCc1cc(N2CCN(CC)CC2)cc(-c2ccccc2OC)c1OC [Example 132]	281 nM	> 1000 nM	392 nM	
CCN1CCN(c2cc(-c3ccccc3)c(OC)c(S(=O)(=O)CC)c2)CC1 [Example 133, 1-Ethyl-4-(3-phenyl-4-methoxy-5-ethanesulfonyl)phenylpiperazine]	28.7 nM	> 1000 nM	9.02 nM	
CCN1CCN(c2cc(-c3ccccc3)c(OC)c(S(=O)(=O)N(C)C)c2)CC1 [Example 134, 1-Ethyl-4-(3-phenyl-4-methoxy-5-dimemthylaminosulfonyl)phenylpiperazine]	59.7 nM	> 1000 nM	30.3 nM	
CCN1CCN(c2cc(-c3ccccc3)c(OC)c(S(=O)(=O)N3CCCC3)c2)CC1 [Example 135, 1-Ethyl-4-[3-phenyl-4-methoxy-5-(1-pyrrolidinylsulfonyl)]phenylpiperazine]	42.1 nM	> 1000 nM	16 nM	
CCN1CCN(c2cc(NS(=O)(=O)CC(F)(F)F)c(Cl)c(-c3ccccc3C)c2)CC1 [Example 136]	14.2 nM	472 nM	89 nM	
CCN1CCN(c2cc(NS(=O)(=O)c3ccc(F)cc3)c(Cl)c(-c3ccccc3C)c2)CC1 [Example 137, 1-Ethyl-4-[3-(2-tolyl)-4-chloro-5-(4-fluorophenylsulfonylamino)]phenylpiperazine]	0.64 nM	312 nM	144 nM	
CCC(O)c1cc(N2CCN(CC)CC2)cc(-c2ccccc2)c1Cl (stereo not drawn) [Example 138, 1Ethyl-4-[3-phenyl-4-chloro-5-(1-hydroxypropyl)]phenylpiperazine]	2.89 nM	9.33 nM	25 nM	
CCN1CCN(c2cc(-c3ccccc3)c(Cl)c(S(=O)(=O)CC)c2)CC1 [Example 139, 1Ethyl-4-(3-phenyl-4-chloro-5-ethanesulfonyl)phenylpiperazine]	2.34 nM	68.7 nM	5.38 nM	
CCC(=O)c1cc(N2CCN(CC)CC2)cc(-c2ccccc2)c1Cl [Example 140, 1-Ethyl-4-(3-phenyl-4-chloro-5-propionyl)phenylpiperazine]	2.97 nM	95.5 nM	26.2 nM	
CCN1CCN(c2cc(-c3ccccc3C)c(Cl)c(S(=O)(=O)N3CCCC3)c2)CC1 [Example 141]	24.9 nM	> 1000 nM	92.7 nM	
CCC(F)c1cc(N2CCN(CC)CC2)cc(-c2ccc(F)cc2C)c1Cl (stereo not drawn) [Example 142, 1-Ethyl-4-{3-[2-(4-fluorotolyl)]-4-chloro-5-(1-fluoropropyl)}phenylpiperazine]	1.77 nM	653 nM	20.5 nM	
CCC(F)c1cc(N2CCN(CC)CC2)cc(-c2ccccc2OC)c1Cl (stereo not drawn) [Example 143, 1-Ethyl-4-[3-(2-methoxyphenyl)-4-chloro-5-(1-fluoropropyl)]phenylpiperazine]	16.9 nM	> 1000 nM	156 nM	
CCC(F)c1cc(N2CCN(CC)CC2)cc(-c2ccc(F)cc2F)c1Cl (stereo not drawn) [Example 144, 1-Ethyl-4-[3-(2,4-difluorophenyl)-4-chloro-5-(1-fluoropropyl)]phenylpiperazine]	0.81 nM	67.4 nM	15.7 nM	
CCC(F)c1cc(N2CCN(CC)CC2)cc(-c2ccccc2COC)c1Cl (stereo not drawn) [Example 145, 1-Ethyl-4-[3-(2-methoxymethylphenyl)-4-chloro-5-(1-fluoropropyl)]phenylpiperazine]	8.28 nM	> 1000 nM	72.5 nM	
CCN1CCN(c2cc(-c3ccc(F)cc3C)c(Cl)c(S(=O)(=O)NC3CC3)c2)CC1 [Example 146, 1-Ethyl-4-{3-[2(4-fluorotolyl)-]4-chloro-5-cyclopropaneaminosulfonyl}phenylpiperazine]	0.83 nM	349 nM	13.2 nM	
CCC(C)c1cc(N2CCN(CC)CC2)cc(-c2ccccc2)c1Cl (stereo not drawn) [Example 147, 1-Ethyl-4-[3-phenyl-4-chloro-5-(1-methylpropyl)]phenylpiperazine]	0.45 nM	33.2 nM	15.1 nM	
CCN1CCN(c2cc(-c3ccc(F)cc3C)c(Cl)c(S(=O)(=O)CC3CC3)c2)CC1 [Example 148, 1-Ethyl-4-{3-[2(4-fluorotolyl)]-4-chloro-5-cyclopropylmethylsulfonyl}phenylpiperazine]	12.1 nM	278 nM	22.4 nM	
CCN1CCN(c2cc(-c3ccccc3)c(F)c(S(=O)(=O)CC)c2)CC1 [Example 149, 1-Ethyl-4-(3-phenyl-4-fluoro-5-ethanesulfonyl)phenylpiperazine]	6.24 nM	27.2 nM	11.6 nM	
CCC(F)c1cc(N2CCN(CCCc3ccncc3)CC2)cc(-c2ccccc2C)c1Cl (stereo not drawn) [Example 150]	7.98 nM	> 1000 nM	97.1 nM	
CCCN1CCN(c2cc(-c3ccccc3C)c(Cl)c(C(F)CC)c2)CC1 (stereo not drawn) [Example 151, 1-Propyl-4-[3-(2-tolyl)-4-chloro-5-(1-fluoropropyl)]phenylpiperazine]	3.52 nM	> 1000 nM	27.7 nM	
CCCS(=O)(=O)Nc1cc(N2CCN(CC)CC2)cc(-c2ccccc2C)c1Cl [Example 153, 1-Ethyl-4-[3-(2-tolyl)-4-chloro-5-propanesulfonylamino]phenylpiperazine]	1.53 nM	68.7 nM	4.19 nM	
CCN1CCN(c2cc(-c3ccccc3C)c(Cl)c(S(=O)(=O)N(C)C)c2)CC1 [Example 154, 1-Ethyl-4-[3-(2-tolyl)-4-chloro-5-dimethylaminosulfonyl]phenylpiperazine]	2.59 nM	> 1000 nM	153 nM	
CCN1CCN(c2cc(-c3ccccc3C)c(F)c(S(C)(=O)=O)c2)CC1 [Example 155]	41 nM	845 nM	180 nM	
